Results published in PubChem BioAssay AID1963425 (Molecular Pharmacology Branch, DTP, NCI, 2024).
“And” between values parts separate entries of the source, which are not always exact repeats. Equal entries are not always repeated.

Tested on: 323965-272-R-J2-PDC complex spheroid growth, % test/control
Assay: Anticancer human tumor 323965-272-R-J2-PDC patient-derived pancreatic carcinoma cell line growth inhibition [Asc]
Settings: for viability, T/C: stronger effect = lower value; active = viability on the fitted dose curve at most 10% of control; inactive = the rest
Procedure, shortened: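 Tumor cells were grown as complex spheroids with human endothelial cells (HUVEC) and human mesenchymal stem cells as stroma. Agents were tested alone and in combination, in half-log steps down from the clinical Cmax, or from 10 microM where Cmax was unknown.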

[1] = curve of first compound, second compound 0.00949 µM
[2] = curve of first compound, second compound 0.03 µM
[3] = curve of first compound, second compound 0.0949 µM
[4] = curve of first compound, second compound 0.3 µM
[5] = curve of first compound, second compound 0.949 µM
[6] = curve of first compound, second compound 3 µM
[7] = second compound 0.00949 µM, first compound 0.00316 µM
[8] = second compound 0.00949 µM, first compound 0.01 µM
[9] = second compound 0.00949 µM, first compound 0.0316 µM
[10] = second compound 0.00949 µM, first compound 0.1 µM
[11] = second compound 0.03 µM, first compound 0.00316 µM
[12] = second compound 0.03 µM, first compound 0.01 µM
[13] = second compound 0.03 µM, first compound 0.0316 µM
[14] = second compound 0.03 µM, first compound 0.1 µM
[15] = second compound 0.0949 µM, first compound 0.00316 µM
[16] = second compound 0.0949 µM, first compound 0.01 µM
[17] = second compound 0.0949 µM, first compound 0.0316 µM
[18] = second compound 0.0949 µM, first compound 0.1 µM
[19] = second compound 0.3 µM, first compound 0.00316 µM
[20] = second compound 0.3 µM, first compound 0.01 µM
[21] = second compound 0.3 µM, first compound 0.0316 µM
[22] = second compound 0.3 µM, first compound 0.1 µM
[23] = second compound 0.949 µM, first compound 0.00316 µM
[24] = second compound 0.949 µM, first compound 0.01 µM
[25] = second compound 0.949 µM, first compound 0.0316 µM
[26] = second compound 0.949 µM, first compound 0.1 µM
[27] = second compound 3 µM, first compound 0.00316 µM
[28] = second compound 3 µM, first compound 0.01 µM
[29] = second compound 3 µM, first compound 0.0316 µM
[30] = second compound 3 µM, first compound 0.1 µM
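Also: compound exposure lasted 7 days starting three days after spheroid seeding.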
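For viability, T/C in this document: 100% = DMSO vehicle control wells with viability set relative to vehicle.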

NC1CCC(NC2CC2c2ccccc2)CC1 (stereo not drawn) + CCN1C(C(=O)NC23CCC(C(=O)O)(CC2)CC3)C(c2cccc(Cl)c2F)C2(C(=O)Nc3cc(Cl)ccc32)C12CCCCC2
> 0.1 µM: IC50 [1] | IC50 [2] | IC50 [3] | IC50 [4] | IC50 [5] | IC50 [6]
inactive: viability, T/C (second compound 0.00949 µM, first compound 0.000316 µM) 98.9% | viability, T/C (second compound 0.00949 µM, first compound 0.001 µM) 94.2% | viability, T/C [7] 94.8% | viability, T/C [8] 97.5% | viability, T/C [9] 98.2% | viability, T/C [10] 88.2% | viability, T/C (second compound 0.03 µM, first compound 0.000316 µM) 97.3% | viability, T/C (second compound 0.03 µM, first compound 0.001 µM) 99.5% | viability, T/C [11] 103% | viability, T/C [12] 102% | viability, T/C [13] 97.9% | viability, T/C [14] 92.8% | viability, T/C (second compound 0.0949 µM, first compound 0.000316 µM) 116% | viability, T/C (second compound 0.0949 µM, first compound 0.001 µM) 91% | viability, T/C [15] 104% | viability, T/C [16] 99.9% | viability, T/C [17] 101% | viability, T/C [18] 88.9% | viability, T/C (second compound 0.3 µM, first compound 0.000316 µM) 99.6% | viability, T/C (second compound 0.3 µM, first compound 0.001 µM) 94.2% | viability, T/C [19] 101% | viability, T/C [20] 96.8% | viability, T/C [21] 99.7% | viability, T/C [22] 88.3% | viability, T/C (second compound 0.949 µM, first compound 0.000316 µM) 102% | viability, T/C (second compound 0.949 µM, first compound 0.001 µM) 95.5% | viability, T/C [23] 94.8% | viability, T/C [24] 92.5% | viability, T/C [25] 106% | viability, T/C [26] 96% | viability, T/C (second compound 3 µM, first compound 0.000316 µM) 98.6% | viability, T/C (second compound 3 µM, first compound 0.001 µM) 88.3% | viability, T/C [27] 90.2% | viability, T/C [28] 97.2% | viability, T/C [29] 96.4% | viability, T/C [30] 87.7%

NC1CCC(NC2CC2c2ccccc2)CC1 (stereo not drawn)
inactive: viability, T/C (compound 0.000316 µM) 97.5% and 97% and 94.2% | viability, T/C (compound 0.001 µM) 105% and 97.8% and 90% | viability, T/C (compound 0.00316 µM) 102% and 98.4% and 89.8% | viability, T/C (compound 0.01 µM) 101% and 97.8% and 90.7% | viability, T/C (compound 0.0316 µM) 120% and 103% and 94% | viability, T/C (compound 0.1 µM) 110% and 90.2% and 92.5%
> 0.1 µM: IC50 (curve of compound)

CCN1C(C(=O)NC23CCC(C(=O)O)(CC2)CC3)C(c2cccc(Cl)c2F)C2(C(=O)Nc3cc(Cl)ccc32)C12CCCCC2 (stereo not drawn) + CNC(C)C(=O)NC1CN(S(=O)(=O)c2cccc(S(=O)(=O)N3CCC4CCC(C(=O)NC(c5ccccc5)c5ccccc5)N4C(=O)C(NC(=O)C(C)NC)C3)c2)CCC2CCC(C(=O)NC(c3ccccc3)c3ccccc3)N2C1=O
> 3 µM: IC50 (curve of first compound, second compound 0.00316 µM) | IC50 (curve of first compound, second compound 0.01 µM) | IC50 (curve of first compound, second compound 0.0316 µM) | IC50 (curve of first compound, second compound 0.1 µM) | IC50 (curve of first compound, second compound 0.316 µM) | IC50 (curve of first compound, second compound 1 µM)
inactive: viability, T/C (second compound 0.00316 µM, first compound 0.00949 µM) 107% | viability, T/C (second compound 0.00316 µM, first compound 0.03 µM) 93.6% | viability, T/C (second compound 0.00316 µM, first compound 0.0949 µM) 98.2% | viability, T/C (second compound 0.00316 µM, first compound 0.3 µM) 93.1% | viability, T/C (second compound 0.00316 µM, first compound 0.949 µM) 105% | viability, T/C (second compound 0.00316 µM, first compound 3 µM) 89.3% | viability, T/C (second compound 0.01 µM, first compound 0.00949 µM) 110% | viability, T/C (second compound 0.01 µM, first compound 0.03 µM) 97.8% | viability, T/C (second compound 0.01 µM, first compound 0.0949 µM) 101% | viability, T/C (second compound 0.01 µM, first compound 0.3 µM) 93.5% | viability, T/C (second compound 0.01 µM, first compound 0.949 µM) 97% | viability, T/C (second compound 0.01 µM, first compound 3 µM) 89.7% | viability, T/C (second compound 0.0316 µM, first compound 0.00949 µM) 99.9% | viability, T/C (second compound 0.0316 µM, first compound 0.03 µM) 99.1% | viability, T/C (second compound 0.0316 µM, first compound 0.0949 µM) 105% | viability, T/C (second compound 0.0316 µM, first compound 0.3 µM) 101% | viability, T/C (second compound 0.0316 µM, first compound 0.949 µM) 92.2% | viability, T/C (second compound 0.0316 µM, first compound 3 µM) 82.7% | viability, T/C (second compound 0.1 µM, first compound 0.00949 µM) 116% | viability, T/C (second compound 0.1 µM, first compound 0.03 µM) 97.7% | viability, T/C (second compound 0.1 µM, first compound 0.0949 µM) 97.8% | viability, T/C (second compound 0.1 µM, first compound 0.3 µM) 104% | viability, T/C (second compound 0.1 µM, first compound 0.949 µM) 87.5% | viability, T/C (second compound 0.1 µM, first compound 3 µM) 83.9% | viability, T/C (second compound 0.316 µM, first compound 0.00949 µM) 93% | viability, T/C (second compound 0.316 µM, first compound 0.03 µM) 81.6% | viability, T/C (second compound 0.316 µM, first compound 0.0949 µM) 94.8% | viability, T/C (second compound 0.316 µM, first compound 0.3 µM) 93.3% | viability, T/C (second compound 0.316 µM, first compound 0.949 µM) 95.7% | viability, T/C (second compound 0.316 µM, first compound 3 µM) 86.2% | viability, T/C (second compound 1 µM, first compound 0.00949 µM) 90.8% | viability, T/C (second compound 1 µM, first compound 0.03 µM) 87.6% | viability, T/C (second compound 1 µM, first compound 0.0949 µM) 94.7% | viability, T/C (second compound 1 µM, first compound 0.3 µM) 85.5% | viability, T/C (second compound 1 µM, first compound 0.949 µM) 89.5% | viability, T/C (second compound 1 µM, first compound 3 µM) 76.6%

CNC(C)C(=O)NC1CN(S(=O)(=O)c2cccc(S(=O)(=O)N3CCC4CCC(C(=O)NC(c5ccccc5)c5ccccc5)N4C(=O)C(NC(=O)C(C)NC)C3)c2)CCC2CCC(C(=O)NC(c3ccccc3)c3ccccc3)N2C1=O (stereo not drawn) + CCN1C(C(=O)NC23CCC(C(=O)O)(CC2)CC3)C(c2cccc(Cl)c2F)C2(C(=O)Nc3cc(Cl)ccc32)C12CCCCC2
> 1 µM: IC50 [1] | IC50 [2] | IC50 [3] | IC50 [4] | IC50 [5] | IC50 [6]
inactive: viability, T/C [7] 110% | viability, T/C [8] 106% | viability, T/C [9] 96.8% | viability, T/C [10] 103% | viability, T/C (second compound 0.00949 µM, first compound 0.316 µM) 109% | viability, T/C (second compound 0.00949 µM, first compound 1 µM) 105% | viability, T/C [11] 102% | viability, T/C [12] 99% | viability, T/C [13] 105% | viability, T/C [14] 105% | viability, T/C (second compound 0.03 µM, first compound 0.316 µM) 113% | viability, T/C (second compound 0.03 µM, first compound 1 µM) 106% | viability, T/C [15] 118% | viability, T/C [16] 103% | viability, T/C [17] 103% | viability, T/C [18] 95% | viability, T/C (second compound 0.0949 µM, first compound 0.316 µM) 106% | viability, T/C (second compound 0.0949 µM, first compound 1 µM) 99.5% | viability, T/C [19] 123% | viability, T/C [20] 113% | viability, T/C [21] 107% | viability, T/C [22] 92.8% | viability, T/C (second compound 0.3 µM, first compound 0.316 µM) 104% | viability, T/C (second compound 0.3 µM, first compound 1 µM) 102% | viability, T/C [23] 112% | viability, T/C [24] 107% | viability, T/C [25] 96.2% | viability, T/C [26] 104% | viability, T/C (second compound 0.949 µM, first compound 0.316 µM) 95.1% | viability, T/C (second compound 0.949 µM, first compound 1 µM) 88.5% | viability, T/C [27] 98.9% | viability, T/C [28] 109% | viability, T/C [29] 90.3% | viability, T/C [30] 101% | viability, T/C (second compound 3 µM, first compound 0.316 µM) 89.5% | viability, T/C (second compound 3 µM, first compound 1 µM) 95.2%

CNC(C)C(=O)NC1CN(S(=O)(=O)c2cccc(S(=O)(=O)N3CCC4CCC(C(=O)NC(c5ccccc5)c5ccccc5)N4C(=O)C(NC(=O)C(C)NC)C3)c2)CCC2CCC(C(=O)NC(c3ccccc3)c3ccccc3)N2C1=O (stereo not drawn)
> 1 µM: IC50 (compound alone, run of 11/15/2022) | IC50 (curve of compound)
inactive: viability, T/C (compound 0.01 µM) 109% [middle of 9 runs] | viability, T/C (compound 0.1 µM) 106% [middle of 9 runs] | viability, T/C (compound 0.316 µM) 100% [middle of 9 runs]
